In patent publication US20260295053A1, “COMPOUNDS FOR DEGRADATION AND INHIBITION OF KRAS (G12D) PROTEIN” (Shenzhen Ionova Life Science Co., Ltd., priority 2023, published 2026):

Legend:
[1] = test system: AsPC-1 cells; experiment: AsPC-1 cell proliferation assay (CellTiter Glo); assay type: cell-based; details: Homo sapiens, ASPC1, 144 h, 6 days
Experimental: ASPC-1 and PK-59 cellular assays ASPC-1 (ATCC cat. CRL-1682) and PK-59 (Nanjing Cobioer, Cat. No. CBP61184) were used in KRAS cellular degradation, pERK inhibition and proliferation assays. The two cell lines were maintained following vendor's instructions. For monitoring KRAS (G12D) cellular degradation and pERK biomarker inhibition, cells were seeded into a 96-well plate with 22,000 and 16,000 cells/well for assays in ASPC-1 and PK-59, respectively. Cells were incubated at 37° C. with 5% CO2 and cell density was monitored until ^~90% confluency was reached. Compounds were serially diluted at a 1:3 ratio and dispensed into each well at final concentrations ranging from […] to 1.5 nM. After incubation for 24 hours, the culture media were removed and the cells were subjected to fixation, permeabilization and blocking (Intercept blocking buffer, Li-cor). For KRAS (G12D) degradation, the cells were treated with primary antibody (KRAS G12D antibody, Cell Signaling Technologies, Cat. No. CST14429) and for β-actin (β-actin mAb, Beyotime, Cat. No. AF-5001), and followed by secondary antibodies, Anti-rabbit IgG (H+L) (DyLight™ 800 4×PEG Conjugate) or IRDye® 680RD Goat anti-Mouse IgG. For pERK inhibition assay, cells were treated with primary antibodies for pERK (Phospho-p44/42 MAPK (Erk1/2) (Thr202/Tyr204) (D13.14.4E) XP® Rabbit mAb, Cell Signaling Technologies, Cat. No. CST-4370) and β-actin (β-actin mAb, Beyotime, Cat. No. AF-5001), and followed by secondary antibodies, Anti-rabbit IgG (H+L) (DyLight™ 800 4×PEG Conjugate) or IRDye® 680RD Goat anti-Mouse IgG. Fluorescence signals were read on Odyssey CLX instrument. For cell proliferation assays, cells were seeded into a 96-well plate at 3,500 and 800 cells/well for assays in ASPC-1 and PK-59, respectively. Cells were incubated at 37° C. with 5% CO2 for overnight. Compounds were serially diluted at a 1:3 ratio and dispensed into each well at final concentrations ranging from […] to 1.5 nM. After incubation for 6 days, cell viability reagent (CellTiter Glo, Promega, Cat. No. G7573) was added to each well and luminescence was recorded on Molecular Devices Spectramax iD3 instrument. IC50, half-maximal inhibitory concentration for pERK inhibition or cell proliferation, and DC50, half-maximal degradation concentration in KRAS (G12D) cellular degradation were determined by fitting the corresponding dose response curves using GraphPad Prism software.
Wherein “A” means the value <10 nM, “B” means 10 nM<the value <100 nM, “C” means 100 nM<the value <1000 nM, and “D” means the value >1000 nM, in which, the value means the value of DC50 or IC50. NT means not tested.

[2] = molecular target: T1, KRAS (G12D) (Homo sapiens, UniProt P01116, G12D); experiment: KRAS (G12D) cellular degradation assay in AsPC-1 cells; assay type: cell-based; details: 24 hours, antibody fluorescence (Odyssey CLX), DC50 half-maximal degradation concentration
T1 construct: in-cell western with KRAS G12D antibody after 24 h
T1 sequence (P01116 1-188 isoform P01116-2 G12D): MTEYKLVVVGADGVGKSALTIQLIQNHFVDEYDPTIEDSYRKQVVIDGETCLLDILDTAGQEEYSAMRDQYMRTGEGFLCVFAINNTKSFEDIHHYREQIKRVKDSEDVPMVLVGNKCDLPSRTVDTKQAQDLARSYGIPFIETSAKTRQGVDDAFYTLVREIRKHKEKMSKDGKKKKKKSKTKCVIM
Summary of the method: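 Degradation: 22,000 cells/well grown to ~90% confluency, 24 h compound, fixed/permeabilised, anti-KRAS G12D + β-actin antibodies, near-IR fluorescence, DC50. Proliferation: 3,500 cells/well overnight, 6 d compound, CellTiter Glo luminescence, IC50. Dosing […]–1.5 nM final, 1:3 steps.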

| Structure (SMILES) | IC50 [1] | DC50 [2] |
| --- | --- | --- |
| CCn1nccc1-c1ccc([C@@H](NC(=O)[C@@H]2C[C@@H](O)CN2C(=O)[C@H](C(C)C)n2cc(-c3ccc(COc4c(-c5c(C)c(F)cc6[nH]ncc56)c(C5CC5)cc5c(N6C[C@@H]7C[C@H]6CN7)nc(OC[C@H](C)OC)nc45)cc3)nn2)C(C)O)cc1 (stereo in doubt) [Example 75, (2S,4R)-1-((2S)-2-(4-(4-(((4-((1S,4S)-2,5-diazabicyclo[2.2.1]heptan-2-yl)-6-cyclopropyl-7-(6-fluoro-5-methyl-1H-indazol-4-yl)-2-((S)-2-methoxypropoxy)quinazolin-8-yl)oxy)methyl)phenyl)-1H-1,2,3-triazol-1-yl)-3-methylbutanoyl)-N-((1R,2R)-1-(4-(1-ethyl-1H-pyrazol-5-yl)phenyl)-2-hydroxypropyl)-4-hydroxypyrrolidine-2-carboxamide] | < 10 nM | < 10 nM |
| CO[C@@H](C)COc1nc(N(C)[C@H]2CCNC2)c2cc(C3CCC3)c(-c3c(C)c(F)cc4[nH]ncc34)c(OCc3ccc(-c4cn([C@H](C(=O)N5C[C@H](O)C[C@H]5C(=O)N[C@H](c5ccc(-c6scnc6C)cc5)C(C)O)C(C)C)nn4)cc3)c2n1 (stereo in doubt) [Example 142, (2S,4R)-1-((2S)-2-(4-(4-(((6-cyclobutyl-7-(6-fluoro-5-methyl-1H-indazol-4-yl)-2-((S)-2-methoxypropoxy)-4-(methyl((S)-pyrrolidin-3-yl)amino)quinazolin-8-yl)oxy)methyl)phenyl)-1H-1,2,3-triazol-1-yl)-3-methylbutanoyl)-4-hydroxy-N-((1R,2R)-2-hydroxy-1-(4-(4-methylthiazol-5-yl)phenyl)propyl)pyrrolidine-2-carboxamide] | < 10 nM | < 10 nM |
| CCn1nccc1-c1ccc([C@H](CO)NC(=O)[C@@H]2C[C@@H](O)CN2C(=O)[C@H](C(C)C)n2cc(-c3ccc(COc4c(-c5c(C)c(F)cc6[nH]ncc56)c(C(F)(F)F)cc5c(N6C[C@@H]7C[C@H]6CN7)nc(OC[C@H](C)OC)nc45)cc3)nn2)cc1 [Example 30, (2S,4R)-1-((2S)-2-(4-(4-(((4-((1S,4S)-2,5-diazabicyclo[2.2.1]heptan-2-yl)-7-(6-fluoro-5-methyl-1H-indazol-4-yl)-2-((S)-2-methoxypropoxy)-6-(trifluoromethyl)quinazolin-8-yl)oxy)methyl)phenyl)-1H-1,2,3-triazol-1-yl)-3-methylbutanoyl)-N—((R)-1-(4-(1-ethyl-1H-pyrazol-5-yl)phenyl)-2-hydroxyethyl)-4-hydroxypyrrolidine-2-carboxamide] | < 10 nM | < 10 nM |
| CCn1nccc1-c1ccc([C@H](CO)NC(=O)[C@@H]2C[C@@H](O)CN2C(=O)[C@H](C(C)C)n2cc(-c3ccc(COc4c(-c5c(C)c(F)cc6[nH]ncc56)c(C5CC5)cc5c(N6C[C@@H]7C[C@H]6CN7)nc(OC[C@H](C)OC)nc45)c4c3CC4)nn2)cc1 [Example 31, (2S,4R)-1-((2S)-2-(4-(5-(((4-((1S,4S)-2,5-diazabicyclo[2.2.1]heptan-2-yl)-6-cyclopropyl-7-(6-fluoro-5-methyl-1H-indazol-4-yl)-2-((S)-2-methoxypropoxy)quinazolin-8-yl)oxy)methyl)bicyclo[4.2.0]octa-1,3,5-trien-2-yl)-1H-1,2,3-triazol-1-yl)-3-methylbutanoyl)-N—((R)-1-(4-(1-ethyl-1H-pyrazol-5-yl)phenyl)-2-hydroxyethyl)-4-hydroxypyrrolidine-2-carboxamide] | < 10 nM | 10 to 100 nM |
| CCn1nccc1-c1ccc([C@H](CO)NC(=O)[C@@H]2C[C@@H](O)CN2C(=O)[C@H](C(C)C)n2cc(-c3ccc(COc4c(-c5c(C)c(F)cc6[nH]ncc56)c(C5CC5)cc5c(N6C[C@@H]7C[C@H]6CN7)nc(OC[C@H](C)OC)nc45)cc3Cl)nn2)cc1 [Example 32, (2S,4R)-1-((2S)-2-(4-(4-(((4-((1S,4S)-2,5-diazabicyclo[2.2.1]heptan-2-yl)-6-cyclopropyl-7-(6-fluoro-5-methyl-1H-indazol-4-yl)-2-((S)-2-methoxypropoxy)quinazolin-8-yl)oxy)methyl)-2-chlorophenyl)-1H-1,2,3-triazol-1-yl)-3-methylbutanoyl)-N—((R)-1-(4-(1-ethyl-1H-pyrazol-5-yl)phenyl)-2-hydroxyethyl)-4-hydroxypyrrolidine-2-carboxamide] | 10 to 100 nM | 10 to 100 nM |
| CCn1nccc1-c1ccc([C@H](CO)NC(=O)[C@@H]2C[C@@H](O)CN2C(=O)[C@H](C(C)C)n2cc(-c3ccc(COc4c(-c5c(C)c(F)cc6[nH]nc(F)c56)c(C5CC5)cc5c(N6C[C@@H]7C[C@H]6CN7)nc(OC[C@H](C)OC)nc45)cc3)nn2)cc1 [Example 33, (2S,4R)-1-((2S)-2-(4-(4-(((4-((1S,4S)-2,5-diazabicyclo[2.2.1]heptan-2-yl)-6-cyclopropyl-7-(3,6-difluoro-5-methyl-1H-indazol-4-yl)-2-((S)-2-methoxypropoxy)quinazolin-8-yl)oxy)methyl)phenyl)-1H-1,2,3-triazol-1-yl)-3-methylbutanoyl)-N—((R)-1-(4-(1-ethyl-1H-pyrazol-5-yl)phenyl)-2-hydroxyethyl)-4-hydroxypyrrolidine-2-carboxamide] | < 10 nM | < 10 nM |
| CCn1nccc1-c1ccc([C@H](CO)NC(=O)[C@@H]2C[C@@H](O)CN2C(=O)[C@H](C(C)C)n2cc(-c3ccc(COc4c(-c5c(C)c(F)cc6[nH]ncc56)c(C5CC5)cc5c(N6CC7CCC(C6)N7)nc(OC6CCOCC6)nc45)cc3)nn2)cc1 [Example 35, (2S,4R)-1-((2S)-2-(4-(4-(((4-(3,8-diazabicyclo[3.2.1]octan-3-yl)-6-cyclopropyl-7-(6-fluoro-5-methyl-1H-indazol-4-yl)-2-((tetrahydro-2H-pyran-4-yl)oxy)quinazolin-8-yl)oxy)methyl)phenyl)-1H-1,2,3-triazol-1-yl)-3-methylbutanoyl)-N—((R)-1-(4-(1-ethyl-1H-pyrazol-5-yl)phenyl)-2-hydroxyethyl)-4-hydroxypyrrolidine-2-carboxamide] | < 10 nM | 10 to 100 nM |
| CCn1nccc1-c1ccc(CNC(=O)[C@@H]2C[C@@H](O)CN2C(=O)[C@H](C(C)C)n2cc(-c3ccc(COc4c(-c5c(C)c(F)cc6[nH]ncc56)c(C5CC5)cc5c(N6C[C@@H]7C[C@H]6CN7)nc(OC[C@H](C)OC)nc45)cc3)nn2)c2c1CC2 [Example 36, (2S,4R)-1-((2S)-2-(4-(4-(((4-((1S,4S)-2,5-diazabicyclo[2.2.1]heptan-2-yl)-6-cyclopropyl-7-(6-fluoro-5-methyl-1H-indazol-4-yl)-2-((S)-2-methoxypropoxy)quinazolin-8-yl)oxy)methyl)phenyl)-1H-1,2,3-triazol-1-yl)-3-methylbutanoyl)-N-((5-(1-ethyl-1H-pyrazol-5-yl)bicyclo[4.2.0]octa-1(6),2,4-trien-2-yl)methyl)-4-hydroxypyrrolidine-2-carboxamide] | 10 to 100 nM | 10 to 100 nM |
| CCn1nccc1-c1ccc([C@H](CO)NC(=O)[C@@H]2C[C@@H](O)CN2C(=O)[C@H](C(C)C)n2cc(-c3ccc(COc4c(-c5c(C)c(F)cc6[nH]ncc56)c(C5CC5)cc5c(N6C[C@@H]7C[C@H]6CN7)nc(OC6CCN(S(C)(=O)=O)CC6)nc45)cc3)nn2)cc1 [Example 38, (2S,4R)-1-((2S)-2-(4-(4-(((4-((1S,4S)-2,5-diazabicyclo[2.2.1]heptan-2-yl)-6-cyclopropyl-7-(6-fluoro-5-methyl-1H-indazol-4-yl)-2-((1-(methylsulfonyl)piperidin-4-yl)oxy)quinazolin-8-yl)oxy)methyl)phenyl)-1H-1,2,3-triazol-1-yl)-3-methylbutanoyl)-N—((R)-1-(4-(1-ethyl-1H-pyrazol-5-yl)phenyl)-2-hydroxyethyl)-4-hydroxypyrrolidine-2-carboxamide] | < 10 nM | < 10 nM |
